Data taken from ChEMBL document CHEMBL3046816, “Development of a Novel Insecticide, Dinotefuran” (J Pestic Sci, 2005).
Converted amounts (≈) assume the structure as drawn.

What was measured:
[1] = Acute toxicity in Anas platyrhynchos (mallard duck) dosed with diet; conditions: in vivo, po
[2] = Solubility in water at pH 7; conditions: buffer
[3] = Toxicity in male po dosed Mus musculus (mouse); conditions: in vivo
[4] = Toxicity in female po dosed Mus musculus (mouse); conditions: in vivo
[5] = Octanol-water partition coefficient, log Pow of the compound

CN/C(=N/CC1CCOC1)N[N+](=O)[O-] (stereo not given) [DINOTEFURAN]
LD50 [1]: > 1300 mg/kg
solubility [2]: 40 mg/mL (≈ 198 mM)
LD50 [3]: 2450 mg/kg
LD50 [4]: 2280 mg/kg
logP [5]: -0.549
